One may read the Papp as the rate of passage across a membrane or cell layer, normalised by area and donor concentration. For orientation: IC50 means the concentration needed to halve the response being measured. As usually defined, the inhibition in vivo is how much of the control response was suppressed. High values mean a strong effect, low ones a weak effect.

Calls of active or inactive are those of the source. The rule behind the calls is not given here.

Series [1] is described as follows: in vitro. To be noted: PAMPA. On the technique in general: PAMPA measures passive passage across an artificial lipid membrane.
Description: Permeability of the compound after 2.5 hrs by PAMPA
Series [2] addresses T1, Acetylcholinesterase (Homo sapiens, UniProt P22303). The series can be described thus: Inhibition of recombinant human AChE using acetylthiocholine iodide as substrate pretreated for 5 mins followed by substrate addition measured for 5 mins by Ellman's method. (In general: DTNB colorimetry detects thiols as they appear.)
The target in series [3] is T2, Cholinesterase (Homo sapiens, UniProt P06276). Nature of the series: Inhibition of recombinant human serum BuChE using butyrylthiocholine iodide as substrate pretreated for 5 mins followed by substrate addition measured for 5 mins by Ellman's method.
Series [4] in a line: in vitro. The following applies: PAMPA. This is another data set of the same source.
Description: Permeability of the compound at 500 uM after 8 hrs by PAMPA
Series [5] deals with T2, Cholinesterase. Nature of the series: Mixed-type inhibition of recombinant human serum BuChE at 0.5 to 2 nM using varying levels of butyrylthiocholine iodide as substrate pretreated for 5 mins followed by substrate addition measured for 5 mins by Lineweaver-Burk plot analysis.
Series [6] concerns the target T1, Acetylcholinesterase. The series can be described thus: Competitive inhibition of recombinant human AChE at 1 to 10 uM using varying levels of acetylthiocholine iodide as substrate pretreated for 5 mins followed by substrate addition measured for 5 mins by Lineweaver-Burk plot analysis.
The target of series [7] is Cholinesterase (Equus caballus) (UniProt P81908). Nature of the series: Binding affinity to equine serum BuChE at 20-fold excess by STD-NMR menthod.
In series [8] the target is Acetylcholinesterase (Electrophorus electricus) (UniProt O42275). Nature of the series: Binding affinity to electric eel AChE at 20-fold excess by STD-NMR menthod.
The target of series [9] is Cholinesterase (Equus caballus) (UniProt P81908). The series can be described thus: Binding affinity to equine serum BuChE at 176 uM by trNOESY NMR method.
Series [10] addresses Acetylcholinesterase (Electrophorus electricus) (UniProt O42275). The series can be described thus: Binding affinity to electric eel AChE at 260 uM by trNOESY NMR method.
For a further series, the system named is SH-SY5Y. The series can be described thus: Cytotoxicity against human SH-SY5Y cells assessed as cell death up to […] after 24 hrs by LDH release assay. The series is classed as cell-based.
Series [11] deals with Rattus norvegicus. Nature of the series: In vivo inhibition of BuChE in Wistar rat at 80 mg/kg, ip measured after 60 mins by Ellman's method relative to control. The series is classed as functional. To be noted: 1 h.
In series [12] the test system is Rattus norvegicus. The series can be described thus: In vivo inhibition of BuChE in Wistar rat administered ip measured after 60 mins by Ellman's method. The series is classed as functional, organism-based.
A short description of series [13]: in vitro. To be noted: PAMPA. The source holds these as a separate data set.
Description: Permeability of the compound by PAMPA

T1 sequence (P22303 whole entry): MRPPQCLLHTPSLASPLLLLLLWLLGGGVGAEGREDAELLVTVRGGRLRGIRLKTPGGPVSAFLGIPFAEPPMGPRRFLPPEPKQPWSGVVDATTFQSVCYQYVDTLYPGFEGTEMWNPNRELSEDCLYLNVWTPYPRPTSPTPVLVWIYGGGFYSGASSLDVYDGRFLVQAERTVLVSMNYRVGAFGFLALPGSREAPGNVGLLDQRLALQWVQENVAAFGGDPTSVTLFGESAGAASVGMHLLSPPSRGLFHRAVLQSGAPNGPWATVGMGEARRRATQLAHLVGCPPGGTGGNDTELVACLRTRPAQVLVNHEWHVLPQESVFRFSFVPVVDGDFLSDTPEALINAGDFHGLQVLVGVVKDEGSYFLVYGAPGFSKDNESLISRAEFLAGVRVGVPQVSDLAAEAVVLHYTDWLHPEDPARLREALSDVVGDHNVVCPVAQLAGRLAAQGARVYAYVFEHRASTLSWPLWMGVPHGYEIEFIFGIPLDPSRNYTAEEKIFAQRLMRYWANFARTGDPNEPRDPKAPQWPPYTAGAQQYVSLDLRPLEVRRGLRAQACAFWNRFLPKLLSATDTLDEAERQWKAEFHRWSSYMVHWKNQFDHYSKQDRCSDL
T2 sequence (P06276 whole entry): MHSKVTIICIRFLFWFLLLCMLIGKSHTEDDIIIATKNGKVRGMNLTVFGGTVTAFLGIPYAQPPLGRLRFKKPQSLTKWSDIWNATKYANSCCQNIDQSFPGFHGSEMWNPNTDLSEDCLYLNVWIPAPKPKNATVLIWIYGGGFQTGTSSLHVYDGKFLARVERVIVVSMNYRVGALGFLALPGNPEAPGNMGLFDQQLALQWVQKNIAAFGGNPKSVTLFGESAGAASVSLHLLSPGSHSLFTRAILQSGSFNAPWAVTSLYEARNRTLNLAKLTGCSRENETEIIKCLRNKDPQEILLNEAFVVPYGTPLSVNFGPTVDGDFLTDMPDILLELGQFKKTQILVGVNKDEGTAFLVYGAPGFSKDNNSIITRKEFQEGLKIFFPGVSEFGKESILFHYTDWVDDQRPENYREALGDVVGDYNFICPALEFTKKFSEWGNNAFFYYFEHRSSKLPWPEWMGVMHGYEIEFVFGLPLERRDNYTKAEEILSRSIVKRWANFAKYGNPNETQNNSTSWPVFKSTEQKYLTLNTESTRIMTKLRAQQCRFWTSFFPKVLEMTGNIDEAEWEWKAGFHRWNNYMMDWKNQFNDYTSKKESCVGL
Sequence of Acetylcholinesterase (Electrophorus electricus) (O42275 24-633 limits assumed): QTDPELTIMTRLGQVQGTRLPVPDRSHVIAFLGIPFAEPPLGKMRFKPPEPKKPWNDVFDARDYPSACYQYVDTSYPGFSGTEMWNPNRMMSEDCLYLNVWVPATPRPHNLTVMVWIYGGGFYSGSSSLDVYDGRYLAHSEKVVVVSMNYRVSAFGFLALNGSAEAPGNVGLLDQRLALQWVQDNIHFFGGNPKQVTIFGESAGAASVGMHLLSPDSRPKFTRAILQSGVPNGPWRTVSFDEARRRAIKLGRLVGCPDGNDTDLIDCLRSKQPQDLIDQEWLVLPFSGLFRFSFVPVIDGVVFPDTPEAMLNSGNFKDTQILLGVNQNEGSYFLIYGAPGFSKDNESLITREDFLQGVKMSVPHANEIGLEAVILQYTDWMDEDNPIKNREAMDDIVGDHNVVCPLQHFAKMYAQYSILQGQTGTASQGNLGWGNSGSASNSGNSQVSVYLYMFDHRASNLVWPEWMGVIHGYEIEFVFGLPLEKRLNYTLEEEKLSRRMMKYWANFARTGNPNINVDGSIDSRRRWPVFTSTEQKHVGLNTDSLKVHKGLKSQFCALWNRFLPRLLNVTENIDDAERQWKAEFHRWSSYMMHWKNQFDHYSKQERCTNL
Sequence of Cholinesterase (Equus caballus) (P81908 whole entry): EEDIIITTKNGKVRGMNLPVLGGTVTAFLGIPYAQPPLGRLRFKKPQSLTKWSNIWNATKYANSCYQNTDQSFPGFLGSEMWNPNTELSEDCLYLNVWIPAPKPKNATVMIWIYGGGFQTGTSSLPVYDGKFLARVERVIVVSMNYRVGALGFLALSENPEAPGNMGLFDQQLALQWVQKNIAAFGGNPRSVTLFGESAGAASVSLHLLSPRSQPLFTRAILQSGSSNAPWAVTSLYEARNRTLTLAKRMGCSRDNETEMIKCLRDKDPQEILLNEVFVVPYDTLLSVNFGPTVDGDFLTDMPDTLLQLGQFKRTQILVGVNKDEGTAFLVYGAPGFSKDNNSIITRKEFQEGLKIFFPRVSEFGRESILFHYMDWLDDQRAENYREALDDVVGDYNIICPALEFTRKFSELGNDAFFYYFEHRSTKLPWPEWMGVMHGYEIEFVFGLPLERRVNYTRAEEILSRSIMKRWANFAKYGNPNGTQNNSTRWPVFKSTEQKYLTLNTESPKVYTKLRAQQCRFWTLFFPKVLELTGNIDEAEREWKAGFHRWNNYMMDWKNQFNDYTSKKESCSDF

`CNCCCN1c2ccccc2CCc2ccccc21` [DESIPRAMINE] came in with a Papp at 2.5 h in “in vitro [1]” of 11.4 ×10⁻⁶ cm/s.
As to `Cn1cc(C(=O)NCCC2CCN(Cc3ccccc3)CC2)c2ccccc21`, the IC50 was determined as 6.11 µM at Acetylcholinesterase [2] and 0.67 µM on Cholinesterase [3]. In addition, the Papp at 2.5 h in “in vitro [1]” turned out to be 4.8 ×10⁻⁶ cm/s. In addition, in the series “in vitro [4]”, the Papp at 8 h, 500 µM was found to be 4.6 ×10⁻⁶ cm/s.
Take `CN1C(C(=O)Nc2ccccn2)=C(O)c2ccccc2S1(=O)=O` [PIROXICAM]: the Papp at 2.5 h in the series “in vitro [1]” is 0.1 ×10⁻⁶ cm/s.
As for `O=C(Cc1c[nH]c2ccccc12)NCCC1CCN(Cc2ccccc2)CC1`, the IC50 at Acetylcholinesterase [2] came out at 3.55 µM; on Cholinesterase [3] it was 0.00087 µM. For the same compound, the inhibition result on Cholinesterase [5] and on Acetylcholinesterase [6] was “Active” in each case. The outcome in series [7], in [8], in series [9] and in [10] was Active. Also, the Papp at 2.5 h in “in vitro [1]” was 2.4 ×10⁻⁶ cm/s. The Papp at 8 h, 500 µM in “in vitro [4]” was found to be 0.1 ×10⁻⁶ cm/s.
`CO/N=C(\C(=O)N[C@@H]1C(=O)N2C(C(=O)O)=C(CSc3nc(=O)c(=O)[nH]n3C)CS[C@H]12)c1csc(N)n1` [CEFTRIAXONE]: the Papp at 8 h, 500 µM in “in vitro [4]” came out at 0.1 ×10⁻⁶ cm/s.
Same read-out and setting: next, `Nc1nc2c(ncn2COCCO)c(=O)[nH]1` [ACYCLOVIR]: 0.1 ×10⁻⁶ cm/s.
Turning to `O=C(Cc1c[nH]c2ccc(Br)cc12)NCCC1CCN(Cc2ccccc2)CC1`, the IC50 is 1.41 µM at Acetylcholinesterase [2] and 0.00068 µM on Cholinesterase [3]. Moreover, the Activity entry with SH-SY5Y was “Non-Toxic”. The compound also registered an inhibition in vivo at 80 mg/kg in the series on Rattus norvegicus [11] of 15%. Also, the inhibition entry with Rattus norvegicus [12] was “Dose-dependent effect”. The Papp at 2.5 h in “in vitro [1]” was found to be 5.8 ×10⁻⁶ cm/s. In addition, the Papp at 8 h, 500 µM in the series “in vitro [4]” turned out to be 0.5 ×10⁻⁶ cm/s.
`O=c1ccc2ccccc2o1` [COUMARIN] returned a Papp in the series “in vitro [13]” of 22.1 ×10⁻⁶ cm/s. The same compound had a Papp at 8 h, 500 µM in the series “in vitro [4]” of 19.3 ×10⁻⁶ cm/s.
In the case of `NC(=O)N1c2ccccc2C=Cc2ccccc21` [CARBAMAZEPINE], the Papp in “in vitro [13]” worked out at 11.3 ×10⁻⁶ cm/s. This compound also returned a Papp at 8 h, 500 µM in “in vitro [4]” of 11.2 ×10⁻⁶ cm/s.
Consider `CN(C)CCCN1c2ccccc2Sc2ccccc21` [PROMAZINE], for which the Papp at 2.5 h in the series “in vitro [1]” turned out to be 11.8 ×10⁻⁶ cm/s.
Turning to `O=C(CCc1c[nH]c2ccccc12)NCCC1CCN(Cc2ccccc2)CC1`, the IC50 at Acetylcholinesterase [2] turned out to be 5.95 µM; on Cholinesterase [3] it was 0.00089 µM. The compound also returned a Papp at 2.5 h in “in vitro [1]” of 2.2 ×10⁻⁶ cm/s. For the same compound, in the series “in vitro [4]”, the Papp at 8 h, 500 µM was determined as 0.7 ×10⁻⁶ cm/s.
In the case of `Cc1[nH]c2ccccc2c1CC(=O)NCCC1CCN(Cc2ccccc2)CC1`, the results for the IC50 on Acetylcholinesterase [2] and on Cholinesterase [3] were 7.27 µM and 0.00109 µM, respectively. Moreover, in the series “in vitro [1]”, the Papp at 2.5 h was 2.3 ×10⁻⁶ cm/s. The Papp at 8 h, 500 µM in “in vitro [4]” is 0.7 ×10⁻⁶ cm/s.
With `Cn1cc(CC(=O)NCCC2CCN(Cc3ccccc3)CC2)c2ccccc21`, the IC50 was determined as 1.42 µM on Acetylcholinesterase [2] and 0.00025 µM on Cholinesterase [3]. This compound also yielded a Papp at 2.5 h in the series “in vitro [1]” of 7.3 ×10⁻⁶ cm/s. In addition, the Papp at 8 h, 500 µM in “in vitro [4]” came out at 5.5 ×10⁻⁶ cm/s.
On the same counts, the results for `O=C(CCCc1c[nH]c2ccccc12)NCCC1CCN(Cc2ccccc2)CC1` are 1.26 µM, 0.012 µM, 3.9 ×10⁻⁶ cm/s and 0.1 ×10⁻⁶ cm/s.
In “in vitro [1]”, `Cn1c(=O)c2c(ncn2C)n(C)c1=O` [CAFFEINE] yielded a Papp at 2.5 h of 0.1 ×10⁻⁶ cm/s.

For the origin of these results see ChEMBL document CHEMBL4251652, “Chameleon-like behavior of indolylpiperidines in complex with cholinesterases targets: Potent butyrylcholinesterase inhibitors” (Eur J Med Chem, 2018).
